Source: patent US20260083864A1, “CONTRAST AGENTS FOR USE IN DIAGNOSTIC COMPUTED TOMOGRAPHY IMAGING” (Bayer Aktiengesellschaft, priority 2022, published 2026)

Assays:
[1] = tested on: plasma proteins; assay: Plasma protein binding, equilibrium dialysis, human; type: in vitro ADME
Excerpt: The binding of Example 1 and 15 to plasma proteins of different species (human, dog, monkey, rabbit, mouse and rat) was investigated in vitro by using equilibrium dialysis in reusable 96-well Micro-Equilibrium Dialysis Devices (ht dialysis) (Banker M J et al. J Pharm Sci. 2003 May; 92 (5): 967-74).

[2] = tested on: cryopreserved human hepatocytes; assay: In vitro metabolism in cryopreserved human hepatocytes; type: in vitro ADME; conditions: 5 μM, incubation time of 4 h, LC-MS
Experimental: The in vitro metabolism was investigated in cryopreserved human and rat hepatocytes (Li A P et al. Biomark Med. 2014; 8 (2): 173-83). Cryopreserved human (WSS) and rat hepatocytes (Wistar rat, RWH137, male) were incubated with the test compound (incubation concentration: 5 μM). The amount of remaining compound was related to the initial amount (0 mins). The cells were removed from the liquid nitrogen. The vial was immersed in the 37° C. water bath and shaken gently (by hand) until most of the ice was melted (approx. 90 sec.). The cell suspensions were transferred e.g. into a 50 ml-centrifuge tube and 12 ml of 4° C.-cold buffer (e.g. Krebs-Henseleit or Williams Medium E) were added. The cell suspension was centrifuged at 50×g for 5 mins. The buffer was aspirated, and the cells resuspended in 5 ml of fresh warm buffer. An aliquot of 50 μl was mixed with 200 μl trypan blue to determine the cell density and cell viability. The cell suspension was adjusted to a final concentration of 0.8 Mio hepatocytes per mL. The incubations were performed in 96 well plates (1.2 ml volume, negative control without cells). The 0 min samples were stopped immediately by adding 250 μl of ice-cold methanol. All other samples are shaken on an Heidolph®-rotor during incubation in a 37° C. incubator for the indicated period of 4 hours. Aliquots of the samples were used for analysis. All samples were analyzed using LC-MS at 0 h, 1 h, 2 h and 4 h (exemplary LC-MS: Accucore C-18 column, 30° C., 0.35 mL/min flow rate, solvent A: 10 mM Ammonium formate+5% MeCN, pH4 and solvent B: MeCN+0.1% formic acid; […] injection volume, gradient: 90% A, 10% B, 5 min 70% A and 30% B, 8 min 0% A and 100% B).

[3] = Complex stability (transmetallation) against Zn2+ in phosphate buffer; conditions: 72 hours, 2.5 mM Zn^2+, 26 mM phosphate buffer, 37° C., pH 7.4
Excerpt: If test compounds are instable under these conditions, transmetallation during this test would lead to the formation of the Zn^2+ complex of the test item, while Gd^3+ is released and precipitated as highly insoluble GdPO4.

[4] = Water solubility in aqueous buffer; conditions: aqueous buffer 10 mM Tris-HCl, pH 7.4, 20° C.
Experimental: The solid compounds were added stepwise to the buffer solution. More substance is added once all the suspended material is dissolved until an equilibrium between undissolved and dissolved substance is reached. The suspension was mixed using a shaker (Heidolph Reax 2000) and treated 5 min in an ultrasound bath (Bandelin, Sonorex Super RK255H).

[5] = Relaxivity measurements at 1.41 T in water; type: physicochemical; conditions: 37° C., normalized to Gd
How it was run: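 T1 by inversion recovery and T2 by CPMG at 1.41 T (60 MHz), 37° C, relaxation delay ≥5×T1. Three Gd concentrations between 0.05 and 2 mM; relaxivities derived from measured relaxation rates in water.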

[6] = biological target: T1, OATP1B3 (Homo sapiens, UniProt Q9NPD5); assay: Uptake into stable transfected OATP1B3 HEK 293 cells; type: cell-based; conditions: for Inhibition Rifampicine: uptake into OATP1B3-HEK 293 cells; for Uptake into OATP1B3-HEK 293 cells: 40 min incubation, relative to RC1 (Gd-EOB-DTPA)
T1 sequence (Q9NPD5 1-702): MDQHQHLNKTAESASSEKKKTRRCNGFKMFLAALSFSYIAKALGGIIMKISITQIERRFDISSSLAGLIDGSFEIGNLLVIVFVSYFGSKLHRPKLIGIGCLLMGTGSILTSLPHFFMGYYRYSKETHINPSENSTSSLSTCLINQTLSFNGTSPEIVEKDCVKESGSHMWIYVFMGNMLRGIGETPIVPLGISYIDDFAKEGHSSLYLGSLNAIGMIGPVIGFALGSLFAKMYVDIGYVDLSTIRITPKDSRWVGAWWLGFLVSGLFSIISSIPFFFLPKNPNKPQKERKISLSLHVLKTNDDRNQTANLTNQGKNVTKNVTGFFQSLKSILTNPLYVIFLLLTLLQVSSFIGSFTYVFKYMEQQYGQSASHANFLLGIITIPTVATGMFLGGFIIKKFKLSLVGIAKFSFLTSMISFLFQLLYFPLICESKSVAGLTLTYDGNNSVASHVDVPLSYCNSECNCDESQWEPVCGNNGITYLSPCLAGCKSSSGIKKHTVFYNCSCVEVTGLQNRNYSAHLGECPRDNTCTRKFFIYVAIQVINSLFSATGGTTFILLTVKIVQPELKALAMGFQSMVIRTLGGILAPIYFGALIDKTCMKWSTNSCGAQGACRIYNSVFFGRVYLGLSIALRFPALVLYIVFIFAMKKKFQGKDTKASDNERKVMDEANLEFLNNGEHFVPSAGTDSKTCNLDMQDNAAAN
How it was run: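 HEK 293 cells stably transfected with human OATP1B3 were incubated for 40 min with test items at 100 μM final in transport buffer, in triplicate, then washed with cold PBS. Gadoxetate (Gd-EOB-DTPA) served as the reference standard on the same plate.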

Row | SMILES | Fraction unbound fu [1] | Metabolites detected [2] | Transmetallation stability [3] | Solubility [4] | r1 water [5] | Inhibition Rifampicine [6] | Uptake into OATP1B3-HEK 293 cells [6]
1 | CCOCCOCCOc1ccc(CCC[C@@H](C(=O)O)N2CCN([C@@H](CO)C(=O)[O-])CCN([C@@H](CO)C(=O)[O-])CCN([C@@H](CO)C(=O)[O-])CC2)cc1.[Gd+3] [Example 15, gadolinium (2S,2′S,2″S)-2,2′,2″-{10-[(1S)-1-carboxy-4-{4-[2-(2-ethoxyethoxy)ethoxy]phenyl}butyl]-1,4,7,10-tetraazacyclododecane-1,4,7-triyl}tris(3-hydroxypropanoate)] | 86% | No metabolites were detected | 101% | >500 mM | 5.1 L/mmol/s | 98 % inhibition | –
2 | CCOc1ccc(CCOCC(C(=O)O)N2CCN(CC(=O)[O-])CCN(CC(=O)[O-])CCN(CC(=O)[O-])CC2)cc1.[Gd+3] (stereo not drawn) [Example 1, gadolinium 2,2′,2″-(10-{1-carboxy-2-[2-(4-ethoxyphenyl)ethoxy]ethyl}-1,4,7,10-tetraazacyclododecane-1,4,7-triyl)triacetate] | 99% | No metabolites were detected | 99% | >258 mM | 4.1 L/mmol/s | 97 % inhibition | 24 % of RC1
3 | CCOCCOCCOc1ccc(CC(C(=O)O)N2CCN(CC(=O)[O-])CCN(CC(=O)[O-])CCN(CC(=O)[O-])CC2)cc1.[Gd+3] (stereo not drawn) [Example 2, gadolinium 2,2′,2″-{10-[1-carboxy-2-{4-[2-(2-ethoxyethoxy)ethoxy]phenyl}ethyl]-1,4,7,10-tetraazacyclododecane-1,4,7-triyl}triacetate] | >95% | No metabolites were detected | 100% | >757 mM | 4.4 L/mmol/s | 80 % inhibition | 56 % of RC1
4 | CCOc1ccc(CC(CN(CCN(CC(=O)[O-])CC(=O)[O-])CC(=O)[O-])N(CC(=O)[O-])CC(=O)[O-])cc1.[Gd+3].[Na+].[Na+] (stereo not drawn) [RC1, gadoxetate disodium, reference compound] | – | – | 44% | >250 mM | – | 99 % inhibition | 100 % of RC1
